Where two headings read alike, the source gives them in different places.
Legend:
Format in all cases: cell-based
AaDOP1 = AaDOP1 (Aedes aegypti, UniProt H6D5H1); test: CRELuc reporter dose-response in HEK293 cells stably expressing AaDOP1; settings: HEK293 cells stably expressing CRELuc reporter and AaDOP1
AaDOP2 [1] = molecular target: T1, AaDOP2 (Aedes aegypti, UniProt H6D5H2); test: CRELuc reporter dose-response in HEK293 cells stably expressing AaDOP2
AaDOP2 [2] = molecular target: T1, AaDOP2; test: AaDOP2 agonist screen against the LOPAC1280 library; settings: 10 μM compound; percent of response to 1 μM dihydrexidine
Isdop2 [3] = molecular target: T2, Isdop2 (Ixodes scapularis, UniProt A0ACM8DGL0); test: cAMP accumulation confirmation assay, cells stably expressing Isdop2
T2 sequence (A0ACM8DGL0 entry or part of it): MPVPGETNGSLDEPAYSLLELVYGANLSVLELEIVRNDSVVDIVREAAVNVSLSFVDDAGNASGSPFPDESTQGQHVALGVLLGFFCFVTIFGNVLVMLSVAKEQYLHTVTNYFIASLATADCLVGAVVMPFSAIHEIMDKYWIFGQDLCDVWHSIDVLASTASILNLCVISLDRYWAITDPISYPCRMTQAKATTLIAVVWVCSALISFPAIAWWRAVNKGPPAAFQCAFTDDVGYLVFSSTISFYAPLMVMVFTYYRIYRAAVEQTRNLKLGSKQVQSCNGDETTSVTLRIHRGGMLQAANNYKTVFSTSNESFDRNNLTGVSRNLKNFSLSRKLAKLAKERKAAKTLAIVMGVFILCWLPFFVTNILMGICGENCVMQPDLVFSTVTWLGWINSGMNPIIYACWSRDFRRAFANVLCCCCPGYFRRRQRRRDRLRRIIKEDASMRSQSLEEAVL

Isdop2 [4] = molecular target: T2, Isdop2; test: cAMP accumulation in HEK 293 cells transiently expressing Isdop2; settings: for Stimulatory response (fold-over-basal) Isdop2: 10 μM biogenic amine, 300 nM propranolol, cAMP accumulation, mean±standard error
Isdop1 [5] = molecular target: T3, Isdop1 (Ixodes scapularis, UniProt A0ACM8FJJ0); test: cAMP accumulation confirmation assay, cells stably expressing Isdop1
Isdop1 [6] = molecular target: T3, Isdop1; test: cAMP accumulation in HEK 293 cells transiently expressing Isdop1; settings: for Stimulatory response (fold-over-basal) Isdop1: 10 μM biogenic amine, 300 nM propranolol, cAMP accumulation, mean±standard error
[7] = 10 μM antagonist with 1 μM dopamine
[8] = 10 μM agonist, transient expression

Chain of AaDOP1 (H6D5H1 entry or part of it): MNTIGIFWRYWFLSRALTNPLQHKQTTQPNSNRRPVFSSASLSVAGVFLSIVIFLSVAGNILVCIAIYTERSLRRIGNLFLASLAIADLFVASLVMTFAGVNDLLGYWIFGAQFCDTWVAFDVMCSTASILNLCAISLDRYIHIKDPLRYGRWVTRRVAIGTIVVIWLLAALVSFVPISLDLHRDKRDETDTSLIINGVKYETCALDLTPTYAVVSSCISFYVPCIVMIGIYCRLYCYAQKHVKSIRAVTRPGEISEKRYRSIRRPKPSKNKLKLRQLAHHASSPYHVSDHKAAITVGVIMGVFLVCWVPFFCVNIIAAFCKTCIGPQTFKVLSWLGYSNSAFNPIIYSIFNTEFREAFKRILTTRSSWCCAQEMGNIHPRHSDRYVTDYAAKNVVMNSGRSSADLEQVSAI
T1 sequence (H6D5H2 entry or part of it): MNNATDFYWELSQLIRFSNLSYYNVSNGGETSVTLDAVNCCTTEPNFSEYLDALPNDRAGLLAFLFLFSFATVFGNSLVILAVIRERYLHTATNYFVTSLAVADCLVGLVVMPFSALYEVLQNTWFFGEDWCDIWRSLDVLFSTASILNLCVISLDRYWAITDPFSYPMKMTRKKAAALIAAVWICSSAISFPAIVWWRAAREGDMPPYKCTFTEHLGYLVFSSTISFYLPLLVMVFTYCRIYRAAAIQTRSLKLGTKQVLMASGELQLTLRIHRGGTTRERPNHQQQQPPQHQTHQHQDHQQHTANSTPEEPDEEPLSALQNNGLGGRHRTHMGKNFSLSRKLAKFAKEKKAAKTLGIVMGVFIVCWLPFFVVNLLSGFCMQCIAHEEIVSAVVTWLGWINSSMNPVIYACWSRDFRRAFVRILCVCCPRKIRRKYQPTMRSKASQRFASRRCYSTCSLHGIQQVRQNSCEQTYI

Row | Compound | EC50 (AaDOP1) | % of DHX (AaDOP2 [2]) | Stimulatory response (fold-over-basal) Isdop2 (Isdop2 [4]) | Stimulatory response (fold-over-basal) Isdop1 (Isdop1 [6]) | further results
1 | Oc1cc2c(cc1O)[C@H]1c3ccccc3CN[C@@H]1CC2 (racemic) [Dihydrexidine] | 6.9 ± 1.5 nM | 116% |  |  | EC50 (AaDOP2 [1]; HEK293 cells stably expressing CRELuc reporter and AaDOP2, read-out: EC50 values AaDOP2): 290 ± 54 nM
2 | CC(C)(C)[C@]1(O)CCN2CC3c4ccccc4CCc4cccc(c43)[C@@H]2C1 (single isomer, unassigned; (+)) [(+)-Butaclamol, 3-(1,1-dimethylethyl)-2,3,4,4a,8,9,13b,14-octahydro-1H-benzo[6,7]cyclohepta[1,2,3-de]pyrido[2,1-a]isoquinolin-3-ol] |  |  |  |  | IC50 (Isdop2 [3]): 320 nM; effect on dopamine-stimulated cAMP, Isdop2 (Isdop2 [4]; [7]): antagonistic effects; IC50 (Isdop1 [5]): 3500 nM; effect on dopamine-stimulated cAMP, Isdop1 (Isdop1 [6]; [7]): did not cause a similar response
3 | NCCc1c[nH]cn1 [Histamine] |  |  | 1.55 ± 0.28 fold-over-basal | 1.02 ± 0.10 fold-over-basal | 
4 | NCC(O)c1ccc(O)cc1 (racemic) [Octopamine] |  |  | 1.20 ± 0.24 fold-over-basal | 1.01 ± 0.07 fold-over-basal | EC50 (AaDOP1; ≧10 μM = lacks intrinsic activity): ≥ 10000 nM; EC50 (AaDOP2 [1]): ≥ 10000 nM
5 | NCCc1c[nH]c2ccc(O)cc12 [Serotonin, 5-hydroxytryptamine] |  |  | 1.52 ± 0.20 fold-over-basal | 1.06 ± 0.08 fold-over-basal | 
6 | Oc1cc2c(cc1O)C(c1ccccc1)CNCC2 (centres unmarked) [SKF 38393] | 310 ± 46 nM | < 10% |  |  | increase in cAMP, Isdop2 (Isdop2 [4]; [8]): ca. two-fold-over-basal; EC50 (AaDOP2 [1]; HEK293 cells stably expressing CRELuc reporter and AaDOP2, ≧10 μM = lacks intrinsic activity, read-out: EC50 values AaDOP2): ≥ 10000 nM; intracellular cAMP compared to basal, Isdop1 (Isdop1 [6]; [8]): modest, yet significant increases

— patent US20140350081A1, “INSECT G-COUPLED RECEPTORS USEFUL AS TARGETS FOR INSECTICIDES AND COMPOUNDS AND REAGENTS IDENTIFIED USING THE SAME” (priority 2011, published 2014)
